Patent US20240368163A1, “COMPOUNDS AND METHODS FOR MODULATING SPLICING” (REMIX THERAPEUTICS INC., priority 2021, published 2024)
Where two headings read alike, the source gives them in different places.

Key:
Assay type in all cases: cell-based, human
[1] = test system: SMN2; test: Splicing RT-qPCR panel, SMN2 canonical junction (CJ) mRNA; details: Homo sapiens, read-out: SMN2 IC50 (decrease in CJ mRNA levels)
How it was run: (§1)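 A673 or K562 cells were treated 24 h at 37 °C with an 11-point 3-fold dilution series (top 10 uM final, DMSO ≤0.25%). Lysates underwent one-step RT-qPCR for canonical (CJ) and alternative (AJ) junctions; Ct normalized to GAPDH, GUSB or PPIA and DMSO control via 2^(−ΔΔCt), expressed as percentage response.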

[2] = test system: Target C; test: Splicing RT-qPCR panel, Target C canonical junction (CJ) mRNA; details: read-out: Target C IC50 (decrease in CJ mRNA levels)
How it was run: as §1

[3] = test system: HTT; test: HiBiT protein abundance assay, HTT; details: Homo sapiens, K562, 24 h, modified K562 cells
How it was run: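 Luminescent readout from lytic HiBiT/LgBiT complementation reports endogenous tagged protein level in engineered K562 cells. Compounds dosed 24 h, top 10 μM final, 3-fold steps, 10 points. IC50 is the concentration giving 50% of untreated-control abundance, from 4-parameter logistic fit.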

[4] = RT-qPCR panel, canonical junction mRNA, compound concentration having 50% response in CJ decrease
[5] = Homo sapiens, RT-qPCR panel, canonical junction mRNA, compound concentration having 50% response in CJ decrease
[6] = gene panel, CJ qPCR, protocol of Example 142
[7] = Homo sapiens, gene panel, CJ qPCR, protocol of Example 142

| IC50 [2, 4] [nM] | Compound | IC50 [1, 4] [nM] | IC50 [2, 5] [nM] | IC50 ([3]; Table 13A) [nM] | IC50 [1, 6] [nM] | IC50 [2, 7] [nM] | IC50 ([3]; Table 13B) [nM] |
| --- | --- | --- | --- | --- | --- | --- | --- |
| – | CN(c1ncc(-c2ccc(-n3cncn3)c3[nH]ncc23)nn1)[C@@H]1C[C@H]2CCC[C@@H](C1)N2 [Compound 574] | < 100 | < 100 | < 100 | – | – | – |
| – | CN(c1ccc(-c2ccc(-c3cn[nH]c3)c3ncsc23)nn1)[C@@H]1C[C@H]2CCC[C@@H](C1)N2 [Compound 226] | < 100 | < 100 | < 100 | – | – | – |
| – | CN(c1ccc(-c2ccc(-c3cnn(C)c3)c3cn[nH]c23)nn1)C1CCNCC1 [Compound 242] | 1000 to 10000 | > 10000 | 1000 to 10000 | – | – | – |
| – | c1nc2c(-c3cn[nH]c3)ccc(-c3ccc(N[C@@H]4C[C@H]5CCC[C@@H](C4)N5)nn3)c2s1 [Compound 215] | < 100 | < 100 | < 100 | – | – | – |
| – | CN(c1ncc(-c2ccc(-n3ccnn3)c3[nH]ncc23)nn1)[C@@H]1C[C@H]2CCC[C@@H](C1)N2 [Compound 576] | 100 to 1000 | 100 to 1000 | < 100 | – | – | – |
| – | COc1cc(-c2ccc(-c3ccc(O[C@@H]4C[C@H]5CC[C@@H](C4)N5)nn3)c3scnc23)cnn1 [Compound 362] | < 100 | 100 to 1000 | < 100 | – | – | – |
| – | CN(c1ccc(-c2cc(F)c(-c3cn[nH]c3)c3cn[nH]c23)nn1)[C@@H]1C[C@H]2CC(F)(F)[C@@H](C1)N2 (stereo in doubt) [Compound 378, 6,6-difluoro-N-{6-[5-fluoro-4-(1H-pyrazol-4-yl)-1H-indazol-7-yl]pyridazin-3-yl}-N-methyl-8-azabicyclo[3.2.1]octan-3-amine] | < 100 | 100 to 1000 | < 100 | – | – | – |
| – | CN(c1ccc(-c2ccc(-c3cn[nH]c3)c(OC3CC3)n2)nn1)[C@@H]1C[C@H]2CC[C@@H](C1)N2 [Compound 939] | – | – | – | < 100 | 100 to 1000 | < 100 |
| – | c1nc2c(-c3cn[nH]c3)ccc(-c3ccc(OC4CCNCC4)nn3)c2s1 [Compound 183] | 100 to 1000 | 100 to 1000 | < 100 | – | – | – |
| – | CCN(c1ccc(C2=CC=C(c3cn[nH]c3)C3N=CSC23)nn1)[C@@H]1C[C@H]2CC[C@@H](C1)N2 (stereo partly drawn) [Compound 203] | < 100 | 100 to 1000 | < 100 | – | – | – |
| – | Cc1ncc(-c2ccc(-c3cnc(N(C)[C@@H]4C[C@H]5CCC[C@@H](C4)N5)nn3)c3scnc23)s1 [Compound 578] | < 100 | 100 to 1000 | < 100 | – | – | – |
| – | CN(c1ccc(-c2ccc(-c3cn[nH]c3)c(F)n2)nn1)[C@@H]1C[C@H]2CC[C@@H](C1)N2 [Compound 922] | – | – | – | < 100 | 100 to 1000 | < 100 |
| – | CN(c1ccc(-c2ccc(-n3cccn3)c3cn[nH]c23)nn1)[C@@H]1C[C@H]2CC[C@@H](C1)N2 [Compound 105] | < 100 | < 100 | < 100 | – | – | – |
| – | CCOc1nc(-c2ccc(OC3CC(C)(C)NC(C)(C)C3)nn2)ccc1-c1cn[nH]c1 [Compound 967] | – | – | – | < 100 | 100 to 1000 | < 100 |
| > 10000 | CC(C)(C)NC1CCN(c2ccc(-c3ccc(-c4cn[nH]c4)c4ncsc34)nn2)C1 (stereo not drawn) [Compound 336] | < 100 | – | < 100 | – | – | – |
| – | CN(c1ccc(-c2ccc(-c3cn[nH]c3)cn2)nn1)[C@@H]1C[C@H]2CC[C@@H](C1)N2 [Compound 915] | – | – | – | > 10000 | 1000 to 10000 | 100 to 1000 |
| – | CCOc1nc(-c2ccc(OC3CC(C)(C)NC(C)(C)C3)nn2)cc(F)c1-c1cn[nH]c1 [Compound 966] | – | – | – | < 100 | < 100 | < 100 |
| – | CN(c1ccc(-c2ccc(-c3cn[nH]c3)c3cn[nH]c23)nn1)C1CC(C)(C)NC(C)(C)C1 [Compound 137] | 100 to 1000 | 1000 to 10000 | 100 to 1000 | – | – | – |
| – | CN(c1ccc(-c2cc(F)c(-c3cnn(C)c3)c3cn[nH]c23)nn1)[C@@H]1C[C@H]2CC[C@@H](C1)N2 [Compound 291] | < 100 | < 100 | < 100 | – | – | – |
| – | c1nc2c(-c3cn[nH]c3)ccc(-c3ccc(N[C@@H]4C[C@H]5CC[C@@H](C4)N5)nn3)c2s1 [Compound 202] | < 100 | 100 to 1000 | < 100 | – | – | – |
| – | CC1(C)CC(Oc2ccc(-c3cc(F)c(-c4cn[nH]c4)c4cn[nH]c34)nn2)CC(C)(C)N1 [Compound 307] | < 100 | 100 to 1000 | < 100 | – | – | – |
| – | CN(c1ccc(-c2ccc(-c3ccc(=O)n(C)c3)c3scnc23)nn1)C1CC(C)(C)NC(C)(C)C1 [Compound 178] | > 10000 | > 10000 | > 10000 | – | – | – |

| IC50 [2, 4] [nM] | Compound | IC50 [1, 4] [nM] | IC50 [2, 5] [nM] | IC50 ([3]; Table 13A) [nM] | IC50 [1, 6] [nM] | IC50 [2, 7] [nM] | IC50 ([3]; Table 13B) [nM] |
| --- | --- | --- | --- | --- | --- | --- | --- |
| – | CN(c1ncc(-c2ccc(-n3cccn3)c3[nH]ncc23)nn1)[C@@H]1C[C@H]2CCC[C@@H](C1)N2 [Compound 551] | < 100 | < 100 | < 100 | – | – | – |
| – | CC1(C)CC(Nc2ccc(-c3ccc(-c4cn[nH]c4)c4ncsc34)nn2)CC(C)(C)N1 [Compound 186] | < 100 | 100 to 1000 | < 100 | – | – | – |
| – | COc1nc(-c2ccc(O[C@@H]3C[C@H]4CC[C@@H](C3)N4)nn2)ccc1-c1cnc(C)s1 [Compound 962] | – | – | – | 100 to 1000 | 1000 to 10000 | 100 to 1000 |
| – | COc1nc(-c2ccc(N(C)[C@@H]3C[C@H]4CC[C@@H](C3)N4)nn2)ccc1-c1ccnc(O)c1 [Compound 961] | – | – | – | 100 to 1000 | 100 to 1000 | 100 to 1000 |
| – | Cc1ncc(-c2ccc(-c3ccc(O[C@@H]4C[C@H]5CC[C@@H](C4)N5)nn3)c3scnc23)s1 [Compound 348, 7-{6-[(exo)-8-azabicyclo[3.2.1]octan-3-yloxy]pyridazin-3-yl}-4-(2-methyl-1,3-thiazol-5-yl)-1,3-benzothiazole] | < 100 | 100 to 1000 | < 100 | – | – | – |
| – | COc1cc(-c2ccc(-c3ccc(N(C)[C@@H]4C[C@H]5CC[C@@H](C4)N5)nn3)nc2OC)ncn1 [Compound 954] | – | – | – | 100 to 1000 | 1000 to 10000 | 100 to 1000 |
| – | c1nc2c(-c3cn[nH]c3)ccc(-c3ccc(N4CCC(NC5CC5)C4)nn3)c2s1 (stereo not drawn) [Compound 337] | 100 to 1000 | > 10000 | 1000 to 10000 | – | – | – |
| – | CN(c1ccc(-c2ccc(-c3cn[nH]c3)c3ncsc23)nn1)[C@@H]1C[C@H]2CC(F)(F)[C@@H](C1)N2 (stereo in doubt) [Compound 379, 6,6-difluoro-N-methyl-N-{6-[4-(1H-pyrazol-4-yl)-1,3-benzothiazol-7-yl]pyridazin-3-yl}-8-azabicyclo [3.2.1]octan-3-amine] | < 100 | 100 to 1000 | < 100 | – | – | – |
| – | COc1nc(-c2ccc(N(C)C3CC(C)(C)NC(C)(C)C3)nn2)ccc1-c1cn[nH]c1 [Compound 919] | – | – | – | < 100 | 100 to 1000 | < 100 |
| – | CN(c1ccc(-c2ccc(-c3cn[nH]c3)c(C#N)n2)nn1)[C@@H]1C[C@H]2CC[C@@H](C1)N2 [Compound 930] | – | – | – | < 100 | 100 to 1000 | < 100 |
| – | COc1nc(-c2ccc(OC3CC(C)(C)NC(C)(C)C3)nn2)ccc1-c1cn[nH]c1 [Compound 917] | – | – | – | < 100 | 100 to 1000 | < 100 |
| – | Fc1cc(-c2ccc(OC3CC4CC(F)(F)C(C3)N4)nn2)c2[nH]ncc2c1-c1cn[nH]c1 (stereo not drawn) [Compound 313, 7-[6-({6,6-difluoro-8-azabicyclo[3.2.1]octan-3-yl}oxy)pyridazin-3-yl]-5-fluoro-4-(1H-pyrazol-4-yl)-1H-indazole] | < 100 | 100 to 1000 | 100 to 1000 | – | – | – |
| – | c1nc2c(-c3cn[nH]c3)ccc(-c3ccc(N(C4CC4)C4C[C@H]5CCC[C@@H](C4)N5)nn3)c2s1 (stereo partly drawn) [Compound 311] | < 100 | 100 to 1000 | 100 to 1000 | – | – | – |
| – | COc1nc(-c2ccc(N(C)[C@@H]3C[C@H]4CC[C@@H](C3)N4)nn2)cc(F)c1-c1cn[nH]c1 [Compound 931] | – | – | – | < 100 | < 100 | < 100 |
| – | COc1nc(-c2ccc(N(C)C3CC(C)(C)NC(C)(C)C3)nn2)ccc1-c1cnn(C)c1 [Compound 920] | – | – | – | < 100 | 100 to 1000 | < 100 |
| – | c1nc2c(-c3cn[nH]c3)ccc(-c3ccc(O[C@@H]4C[C@H]5CC[C@@H](C4)N5)nn3)c2s1 [Compound 184] | < 100 | 100 to 1000 | < 100 | – | – | – |
| – | c1cnn(-c2ccc(-c3cnc(N[C@@H]4C[C@H]5CC[C@@H](C4)N5)nn3)c3cn[nH]c23)c1 [Compound 556] | 100 to 1000 | 100 to 1000 | < 100 | – | – | – |
| – | COc1nc(-c2ccc(OC3CC(C)(C)NC(C)(C)C3)nn2)ccc1-c1cnn(C)c1 [Compound 918] | – | – | – | < 100 | 100 to 1000 | < 100 |
| – | COc1nc(-c2ccc(OC3CC(C)(C)NC(C)(C)C3)nn2)cc(F)c1-c1cn[nH]c1 [Compound 965] | – | – | – | < 100 | 100 to 1000 | < 100 |
| – | COc1nc(-c2ccc(OC3CC4CC(F)(F)C(C3)N4)nn2)cc(F)c1-c1cn[nH]c1 (stereo not drawn) [Compound 969] | – | – | – | 1000 to 10000 | > 10000 | 100 to 1000 |
| – | Cc1nc(-c2ccc(-c3cnc(N(C)[C@@H]4C[C@H]5CCC[C@@H](C4)N5)nn3)c3scnc23)cs1 [Compound 579] | 100 to 1000 | 100 to 1000 | 100 to 1000 | – | – | – |
